According to patent US20230381204A1, “COMPOSITIONS FOR TREATING INFLAMMATIONS, WOUNDS AND SCARRING” (priority 2020, published 2023):

Experiments:
[1] = system: IL-1α; test: LPS-induced IL-1α secretion in RAW 264.7 cells (ELISA); format: cell-based; settings: Mus musculus, read-out: IL-1 alpha inhibition
Procedure: (§1) RAW 264.7 cells ([…] ¢/ml, by counting) were seeded in 96 well plates containing 170 μl/well of complete growth medium (See formulation section). The cells were incubated at 37° C. with 5% CO2 for 24 hr. The medium was aspirated and replaced by LPS-containing medium (25 ng/ml) with or without the Tested Samples at two different concentrations (similarly to what is presented in Table 1). In addition, Naïve cells (Group 1), vehicle treated cells (Group 2), Stimulated Control (Group 3) and Stimulated Vehicle Control (Group 4) served as negative controls. SDS (Group 5) and Dexamethasone (Group 6) served as positive controls for viability and anti-inflammatory assays, respectively. A Blank control group was included in the assay (Group 11), and subtracted from all treatments.
(§2) The cells were incubated at 37° C. with 5% CO2 for 24 hr. At the end of incubation, the viability of the cells was measured using the MTT assay, according to SOP. […] IL-1α, TNFα and IL-6 levels were measured by ELISA, according to manufacturer instructions. […]
(§3) The anti-inflammatory activity of the Tested Samples was examined in the LPS-induced inflammatory model (RAW 264.7 cells) and the secretion of three cytokines was monitored. Then, the compatibility and possible synergistic action of selected combination was determined. IL-1α, TNFα and IL-6 levels were measured by ELISA, according to manufacturer instructions.

[2] = system: TNFα; test: LPS-induced TNFα secretion in RAW 264.7 cells (ELISA); format: cell-based, Mouse
Procedure: RAW 264.7 cells (170×105 ¢/ml, by counting) were seeded in 96 well plates containing 170 μl/well of complete growth medium (See formulation section). The cells were incubated at 37° C. with 5% CO2 for 24 hr. The medium was aspirated and replaced by LPS-containing medium (25 ng/ml) with or without the Tested Samples at two different concentrations (similarly to what is presented in Table 1). In addition, Naïve cells (Group 1), vehicle treated cells (Group 2), Stimulated Control (Group 3) and Stimulated Vehicle Control (Group 4) served as negative controls. SDS (Group 5) and Dexamethasone (Group 6) served as positive controls for viability and anti-inflammatory assays, respectively. A Blank control group was included in the assay (Group 11), and subtracted from all treatments.
The cells were incubated at 37° C. with 5% CO2 for 24 hr. At the end of incubation, the viability of the cells was measured using the MTT assay, according to SOP. Viability greater than 85% was considered nontoxic. In addition, the spent media from all test groups was collected under standardized conditions and centrifuged at 250×g for 5 min to remove particulates. Clear supernatants were frozen at −70° C. until cytokine analysis. IL-1α, TNFα and IL-6 levels were measured by ELISA, according to manufacturer instructions.
Cell culturing and treatments was performed under sterile conditions. Experiments were carried out in a certified RAW 264.7 cells (Mouse monocyte macrophage) obtained originally from ECACC. The cells were incubated at 37° C. with 5% CO2 for 24 hr. Then, the medium
was aspirated and replaced by LPS-containing medium (25 ng/ml) with or without the Tested Samples. In addition, Naïve cells, vehicle treated cells, Stimulated Control and Stimulated Vehicle Control served as negative controls. Dexamethasone served as positive controls for anti-inflammatory assays. Blank control group was included in the assay, and subtracted from all treatments.
The anti-inflammatory activity of the Tested Samples was examined in the LPS-induced inflammatory model (RAW 264.7 cells) and the secretion of three cytokines was monitored. […] IL-1α, TNFα and IL-6 levels were measured by ELISA, according to manufacturer instructions.
Experiments were carried out in a certified RAW 264.7 cells (Mouse monocyte macrophage) obtained originally from ECACC. RAW 264.7 cells (approx. 2×105 ¢/ml, by counting) were seeded in 96 well plates containing 170 μl/well of complete growth medium. The cells were incubated at 37° C. with 5% CO2 for 24. Next, the medium was aspirated and replaced by LPS-containing medium (25 ng/ml) with or without the Tested Samples.
In addition, Naïve cells, vehicle treated cells, Stimulated Control and Stimulated Vehicle Control served as controls (FIG. 4A). […]

[3] = system: IL-6; test: LPS-induced IL-6 secretion in RAW 264.7 cells (ELISA); format: cell-based; settings: Mus musculus, RAW264.7, LPS 25 ng/ml, 24 hr
Procedure: as §1, §2, §3

[4] = system: RAW 264.7 cells; test: MTT cell viability (toxicity evaluation) in RAW 264.7 cells; format: cell-based, Mouse; settings: positive control for viability, 0.1%; 24 hr
Procedure: The assay was performed on 15 Tested Samples in triplicates (the Tested Samples are labeled 1-11 and 13-16). RAW 264.7 cells (1.7×10^5 ¢/ml, by counting) were seeded in 96 well plates containing […] of complete growth medium (see formulation section). The cells were incubated at 37° C. with 5% CO2 for 24 hr. The medium was aspirated and replaced by LPS-containing medium (25 ng/ml) with or without the Tested Samples at four different concentrations, as described below. In addition, Naive cells (Group 1), vehicle treated cells (Group 2), Stimulated Control (Group 3) and Stimulated Vehicle Control (Group 4) served as negative controls. SDS (Group 5) and Dexamethasone (Group 6) served as positive controls for viability and anti-inflammatory assays, respectively. The blank control group was included in the assay (Group 11), and subtracted from all treatments. The cells were incubated at 37° C. with 5% CO2 for 24 hr. At the end of incubation, the viability of the cells was measured using the MTT assay. Viability greater than 85% was considered nontoxic.

In the case of `C=C(C)[C@@H]1CCC(C)=C[C@H]1c1c(O)cc(CCCCC)cc1O` [CBD, cannabidiol], the inhibition at 0.5 µg/mL ([1]; RAW264.7, 0.5 μg/ml alone, LPS 25 ng/ml, 24 hr) is reported as 7.6%, the inhibition at 0.1 µg/mL ([2]; Mus musculus, RAW264.7, 0.1 μg/ml alone, LPS 25 ng/ml, 24 hr, read-out: TNF alpha inhibition) is reported as 12.3% and the inhibition at 0.5 µg/mL ([2]; Mus musculus, RAW264.7, 0.5 μg/ml alone, LPS 25 ng/ml, 24 hr, read-out: TNF alpha inhibition) is reported as 22.6%. For the same molecule, the inhibition at 0.1 µg/mL ([3]; 0.1 μg/ml alone) was 8.2% and the inhibition at 0.5 µg/mL ([3]; 0.5 μg/ml alone) was 10.6%.
`CCCCCc1cc(O)c(C/C=C(\C)CCC=C(C)C)c(O)c1` [CBG, cannabigerol] was tested, and the inhibition at 2 µg/mL ([1]; RAW264.7, 24 h) was 12.9% and the inhibition at 2 µg/mL ([2]; Mus musculus, RAW264.7, 24 h, read-out: TNF alpha inhibition) was 26.8%.
`CCCCCCCCCCCCOS(=O)(=O)[O-].[Na+]` [SDS] was tested, and the “cell viability (MTT)” value [4] was “toxic and caused a significant reduction in cell viability”.
For `NC(=O)NC1NC(=O)NC1=O` (stereo not drawn) [allantoin], the TNF alpha inhibition ([2]; 2 μg/ml alone, LPS 25 ng/ml) was “no activity”.
